These results are taken from patent US9663510B2, “Substituted triazolopyridines and their use as TTK inhibitors” (Bayer Intellectual Property GmbH, priority 2011, dated 2017).

A short description of data set [1]: Metabolic stability in vitro, dog liver microsomes (calculation of Fmax). The format is in vitro ADME. The note with it: maximal oral bioavailability calculated from microsomal half-life, 1 μM. Here is the method:
(§1) The metabolic stability of test compounds in vitro was determined by incubating them at 1 μM with a suspension liver microsomes in 100 mM phosphate buffer, pH7.4 (NaH2PO4×H2O+Na2HPO4×2H2O) at a protein concentration of 0.5 mg/mL and at 37° C. The reaction was activated by adding a co-factor mix containing 1.2 mg NADP, 3 IU glucose-6-phosphate dehydrogenase, 14.6 mg glucose-6-phosphate and 4.9 mg MgCl2 in phosphate buffer, pH 7.4. Organic solvent in the incubations was limited to <0.2% dimethylsulfoxide (DMSO) and <1% methanol. During incubation, the microsomal suspensions were continuously shaken and aliquots were taken at 2, 8, 16, 30, 45 and 60 min, to which equal volumes of cold methanol were immediately added. Samples were frozen at −20° C. over night, subsequently centrifuged for 15 minutes at 3000 rpm and the supernatant was analyzed with an Agilent 1200 HPLC-system with LCMS/MS detection.
(§2) The half-life of a test compound was determined from the concentration-time plot. From the half-life the intrinsic clearances were calculated. Together with the additional parameters liver blood flow, specific liver weight and microsomal protein content the hepatic in vivo blood clearance (CL) and the maximal oral bioavailability (Fmax) were calculated for the different species. The following parameter values were used: Liver blood flow—1.3 L/h/kg (human), 2.1 L/h/kg (dog), 4.2 L/h/kg (rat); specific liver weight—21 g/kg (human), 39 g/kg (dog), 32 g/kg (rat); microsomal protein content—40 mg/g.
(§3) With the described assay only phase-I metabolism of microsomes is reflected, e.g. typically oxidoreductive reactions by cytochrome P450 enzymes and flavin mono-oxygenases (FMO) and hydrolytic reactions by esterases (esters and amides).

The target of data set [2] is human kinase Mps-1 (Homo sapiens (Human), UniProt P33981). Kind of data set: Mps-1 kinase assay (TR-FRET). It is filed as biochemical. (TR-FRET usually uses a lanthanide donor and a delayed reading to cut background.)
Chain of human kinase Mps-1 (P33981 whole entry): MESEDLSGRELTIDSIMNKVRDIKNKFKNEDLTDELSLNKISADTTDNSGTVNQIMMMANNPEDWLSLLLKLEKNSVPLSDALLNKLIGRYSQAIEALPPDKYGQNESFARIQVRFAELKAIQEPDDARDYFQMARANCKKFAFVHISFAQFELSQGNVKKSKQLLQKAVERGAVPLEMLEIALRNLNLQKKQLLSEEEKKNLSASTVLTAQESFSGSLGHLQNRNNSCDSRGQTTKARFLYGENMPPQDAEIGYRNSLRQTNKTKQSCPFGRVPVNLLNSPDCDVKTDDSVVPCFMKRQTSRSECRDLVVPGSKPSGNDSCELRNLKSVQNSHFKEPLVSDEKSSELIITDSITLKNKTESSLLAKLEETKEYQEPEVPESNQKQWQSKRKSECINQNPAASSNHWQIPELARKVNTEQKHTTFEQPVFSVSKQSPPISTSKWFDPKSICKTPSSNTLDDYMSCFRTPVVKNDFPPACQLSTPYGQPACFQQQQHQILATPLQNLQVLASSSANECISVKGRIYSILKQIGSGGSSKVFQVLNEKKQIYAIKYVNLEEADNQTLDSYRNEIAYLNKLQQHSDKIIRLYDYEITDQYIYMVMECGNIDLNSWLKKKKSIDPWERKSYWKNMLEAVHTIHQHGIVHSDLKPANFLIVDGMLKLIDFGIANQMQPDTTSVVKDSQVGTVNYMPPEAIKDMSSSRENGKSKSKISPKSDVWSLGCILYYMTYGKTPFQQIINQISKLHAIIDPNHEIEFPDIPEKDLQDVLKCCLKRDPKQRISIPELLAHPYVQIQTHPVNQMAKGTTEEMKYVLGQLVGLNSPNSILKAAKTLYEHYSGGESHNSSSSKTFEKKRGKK
Data set [3] has as its system HeLa human cervical tumor cells. Kind of data set: HeLa cell proliferation assay (crystal violet). The format is cell-based. To be noted: 96 h, 4 days incubation, read-out: Inhibition of cell proliferation, cell Line: HeLa IC50.
Data set [4] in a line: Metabolic stability in vitro, human liver microsomes (calculation of Fmax). It is filed as in vitro ADME. The note with it: maximal oral bioavailability calculated from microsomal half-life, 1 μM. Here is the method:
as §1, §2, §3

The nature of data set [5]: Metabolic stability in vitro, rat liver microsomes (calculation of Fmax). The format is in vitro ADME. The note with it: maximal oral bioavailability calculated from microsomal half-life, 1 μM. Here is the method: as §1, §2, §3
[6] abbreviates: read-out: Mps-1 Inhibition, IC50 (Assay with 10 μM ATP), 10 μM ATP.
[7] abbreviates: read-out: Mps-1 Inhibition, IC50 (Assay with 2 mM ATP), 2 mM ATP.

Like-named read-outs stand apart in the source and are kept apart here. Bounds are passed on as bounds.

For `C[C@@H](C(=O)Nc1ccc(-c2ccc3nc(Nc4ccc(C(N)=O)cc4OCC(F)(F)F)nn3c2)cc1)c1ccc(F)cc1` [Example01.06, 4-{[6-(4-{[(2R)-2-(4-fluorophenyl)propanoyl]amino}phenyl)[1,2,4]triazolo-[1,5-a]pyridin-2-yl]amino}-3-(2,2,2-trifluoroethoxyl)benzamide], the “Dog liver microsomes; Fmax [%]” value in data set [1] is listed as 81%. Besides, the IC50 in data set [2] (2 mM ATP) is 1.5 nM; in data set [2] (setting [6]), less than 1 nM; in data set [3], less than 100 nM. For the same molecule, in data set [4], the “Human liver microsomes; Fmax [%]” value was greater than 95%. In data set [5], the “Rat liver microsomes; Fmax [%]” value is given as 94%.
Turning to `N#Cc1ccccc1Nc1nc2ccc(-c3ccc(NC(=O)C(F)(F)c4ccccc4)cc3)cn2n1` [reference compound], the “Rat liver microsomes; Fmax [%]” value in data set [5] was 27%.
Consider `COc1cc(C(=O)NCC(F)(F)F)ccc1Nc1nc2ccc(-c3ccc(NC(=O)[C@H](C)c4ccc(F)cc4)cc3)cn2n1` [Example 01.04, 4-{[6-(4-{[(2R)-2-(4-fluorophenyl)propanoyl]amino}phenyl)[1,2,4]-triazolo[1,5-a]pyridin-2-yl]amino}-3-methoxy-N-(2,2,2-trifluoro-ethyl)benzamide], for which the “Dog liver microsomes; Fmax [%]” value in data set [1] is listed as 94%. Further, the IC50 in data set [2] (2 mM ATP) was 2 nM; in data set [2] (setting [6]), less than 1 nM; in data set [3] it was less than 400 nM. Also, in data set [4], the “Human liver microsomes; Fmax [%]” value is on record as greater than 95%. Also, the “Rat liver microsomes; Fmax [%]” value in data set [5] is recorded as 87%.
Regarding `CCOc1cc(S(C)(=O)=O)ccc1Nc1nc2ccc(-c3ccc(C(=O)NCc4ccc(F)cc4)c(C)c3)cn2n1` [reference compound], the “Dog liver microsomes; Fmax [%]” value in data set [1] is 12%.
In the case of `N#Cc1c(F)cccc1Nc1nc2ccc(-c3ccc(NC(=O)Cc4ccc(F)cc4)cc3)cn2n1` [reference compound], in data set [1], the “Dog liver microsomes; Fmax [%]” value is given as 15%.
The same measure, in the same setting: with `CS(=O)(=O)c1ccc(Nc2nc3ccc(-c4ccc(NC(=O)Cc5ccc(F)cc5)cc4)cn3n2)c(OCC(F)(F)F)c1` [reference compound] the figure was 25%.
Consider `COc1cc(N2CCOC2=O)ccc1Nc1nc2ccc(-c3ccc(NC(=O)[C@H](C)c4ccc(F)cc4)cc3)cn2n1` [Example 01.09, (2R)-2-(4-fluorophenyl)-N-[4-(2-{[2-methoxy-4-(2-oxo-1,3-oxazolidin-3-yl)phenyl]amino}[1,2,4]triazolo[1,5-a]pyridin-6-yl)phenyl]propanamide], for which the “Dog liver microsomes; Fmax [%]” value in data set [1] was 48%. In addition, in data set [4], the “Human liver microsomes; Fmax [%]” value is reported as 49%. For the same molecule, the “Rat liver microsomes; Fmax [%]” value in data set [5] is given as 58%.
As to `CS(=O)(=O)c1ccc(Nc2nc3ccc(-c4ccc(NC(=O)C(CO)c5ccc(F)cc5)cc4)cn3n2)c(OCC(F)(F)F)c1` (single isomer, unassigned) [Example01.10, (−)-2-(4-fluorophenyl)-3-hydroxy-N-[4-(2-{[4-(methylsulfonyl)-2-(2,2,2-tri-fluoroethoxy)phenyl]amino}[1,2,4]triazolo[1,5-a]pyridin-6-yl)phenyl]-propanamide], in data set [1], the “Dog liver microsomes; Fmax [%]” value was greater than 95%. Also, the IC50 was 1.1 nM in data set [2] (2 mM ATP), less than 1 nM in data set [2] (setting [6]) and less than 200 nM in data set [3]. Also, the “Human liver microsomes; Fmax [%]” value in data set [4] was greater than 95%. Further, the “Rat liver microsomes; Fmax [%]” value in data set [5] is reported as greater than 95%.
In the case of `C[C@@H](C(=O)Nc1ccc(-c2ccc3nc(Nc4ccc(S(C)(=O)=O)cc4OCC(F)(F)F)nn3c2)cc1)c1ccc(F)cc1` [Example 01.03, (2R)-2-(4-fluorophenyl)-N-[4-(2-{[4-(methylsulfonyl)-2-(2,2,2-trifluoro-ethoxy)phenyl]amino}[1,2,4]triazolo[1,5-a]pyridin-6-yl)phenyl]-propanamide], the “Dog liver microsomes; Fmax [%]” value in data set [1] is 55%. Besides, the IC50 in data set [2] (setting [6]) and in data set [2] (setting [7]) was less than 1 nM throughout. Further, in data set [4], the “Human liver microsomes; Fmax [%]” value was greater than 95%. Besides, the “Rat liver microsomes; Fmax [%]” value in data set [5] is 93%.
Take `COc1cc(C(=O)N2CC(F)C2)ccc1Nc1nc2ccc(-c3ccc(NC(=O)[C@H](C)c4ccc(F)cc4)cc3)cn2n1` [Example 01.07, (2R)-N-{4-[2-({4-[(3-fluoroazetidin-1-yl)carbonyl]-2-methoxyphenyl}amino)-[1,2,4]triazolo[1,5-a]pyridin-6-yl]phenyl}-2-(4-fluorophenyl)propanamide]: the “Dog liver microsomes; Fmax [%]” value in data set [1] is given as 86%. The “Human liver microsomes; Fmax [%]” value in data set [4] was greater than 95%. For the same molecule, the “Rat liver microsomes; Fmax [%]” value in data set [5] is 83%.
As to `COc1cc(S(C)(=O)=O)ccc1Nc1nc2ccc(-c3ccc(NC(=O)Cc4ccc(F)cc4)cc3)cn2n1` [reference compound], in data set [1], the “Dog liver microsomes; Fmax [%]” value is reported as 10%.
Turning to `N#Cc1ccccc1Nc1nc2ccc(-c3ccc(NC(=O)Cc4ccc(F)cc4)cc3)cn2n1` [reference compound], in data set [5], the “Rat liver microsomes; Fmax [%]” value was 40%.
Turning to `COc1cc(C(=O)N2CCOCC2)ccc1Nc1nc2ccc(-c3ccc(NC(=O)Cc4ccc(F)cc4)cc3)cn2n1` [reference compound], the “Rat liver microsomes; Fmax [%]” value in data set [5] was 48%.
Regarding `COc1cc(C(N)=O)ccc1Nc1nc2ccc(-c3ccc(NC(=O)[C@H](C)c4ccc(F)cc4)cc3)cn2n1` [Example01.05], the “Dog liver microsomes; Fmax [%]” value in data set [1] is listed as 89%. In addition, the IC50 is 1.2 nM in data set [2] (2 mM ATP), less than 1 nM in data set [2] (setting [6]) and less than 100 nM in data set [3]. Besides, in data set [4], the “Human liver microsomes; Fmax [%]” value is greater than 95%. In addition, in data set [5], the “Rat liver microsomes; Fmax [%]” value is greater than 95%.
With `COc1ccccc1Nc1nc2ccc(-c3ccc(NC(=O)Cc4ccccc4)cc3)cn2n1` [reference compound], the “Rat liver microsomes; Fmax [%]” value in data set [5] is 40%.
Turning to `CCOc1cc(S(C)(=O)=O)ccc1Nc1nc2ccc(-c3ccc(NC(=O)[C@H](C)c4ccc(F)cc4)cc3)cn2n1` [Example01.02, (2R)—N-[4-(2-{[2-ethoxy-4-(methylsulfonyl)phenyl]amino}[1,2,4]-triazolo[1,5-a]pyridin-6-yl)phenyl]-2-(4-fluorophenyl)propanamide], in data set [1], the “Dog liver microsomes; Fmax [%]” value is listed as 73%. Besides, the results for the IC50 in data set [2] (setting [6]), in data set [2] (setting [7]) and in data set [3] were less than 1 nM, less than 1 nM and less than 600 nM, respectively. The “Human liver microsomes; Fmax [%]” value in data set [4] is 68%. Also, the “Rat liver microsomes; Fmax [%]” value in data set [5] is given as 86%.
As for `COc1cc(C(=O)NCC(F)(F)F)ccc1Nc1nc2ccc(-c3ccc(NC(=O)Cc4ccc(F)cc4)cc3)cn2n1` [reference compound], the “Dog liver microsomes; Fmax [%]” value in data set [1] is 40%.
For the molecule `N#Cc1ccccc1Nc1nc2ccc(-c3ccc(NC(=O)C(F)c4ccccc4)cc3)cn2n1` (centres unmarked) [reference compound], the “Rat liver microsomes; Fmax [%]” value in data set [5] was 26%.
In the case of `COc1cc(N2CCOC2=O)ccc1Nc1nc2ccc(-c3ccc(NC(=O)Cc4ccc(F)cc4)cc3)cn2n1` [reference compound], the “Dog liver microsomes; Fmax [%]” value in data set [1] is given as 17%.
In the case of `COc1cc(S(C)(=O)=O)ccc1Nc1nc2ccc(-c3ccc(NC(=O)[C@H](C)c4ccc(F)cc4)cc3)cn2n1` [Example 01.01, (2R)-2-(4-fluorophenyl)-N-[4-(2-{[2-methoxy-4-(methylsulfonyl)phenyl]-amino}[1,2,4]triazolo[1,5-a]pyridin-6-yl)phenyl]propanamide], in data set [1], the “Dog liver microsomes; Fmax [%]” value is 64%. The IC50 in data set [3] was less than 400 nM. For the same molecule, the “Human liver microsomes; Fmax [%]” value in data set [4] is 92%. Further, the “Rat liver microsomes; Fmax [%]” value in data set [5] is 92%.
As to `COC(C(=O)Nc1ccc(-c2ccc3nc(Nc4ccccc4C#N)nn3c2)cc1)c1ccccc1` (centres unmarked) [reference compound], in data set [5], the “Rat liver microsomes; Fmax [%]” value is 19%.
For the molecule `COc1cc(S(C)(=O)=O)ccc1Nc1nc2ccc(-c3ccc(NC(=O)[C@H](N)c4ccc(F)cc4)cc3)cn2n1` [Example01.11, (2R)-2-amino-2-(4-fluorophenyl)-N-[4-(2-{[2-methoxy-4-(methylsulfonyl)-phenyl]amino}[1,2,4]triazolo[1,5-a]pyridin-6-yl)phenyl]ethanamide], the “Dog liver microsomes; Fmax [%]” value in data set [1] is given as 75%. In addition, the values for the IC50 in data set [2] (2 mM ATP), in data set [2] (setting [6]) and in data set [3] were 9 nM, less than 1 nM and less than 600 nM, respectively. Also, the “Human liver microsomes; Fmax [%]” value in data set [4] is 76%. Also, in data set [5], the “Rat liver microsomes; Fmax [%]” value was 92%.
With `COc1cc(C(=O)N2CCC2)ccc1Nc1nc2ccc(-c3ccc(NC(=O)[C@H](C)c4ccc(F)cc4)cc3)cn2n1` [Example01.08, (2R)—N-[4-(2-{[4-(azetidin-1-ylcarbonyl)-2-methoxyphenyl]amino}[1,2,4]-triazolo[1,5-a]pyridin-6-yl)phenyl]-2-(4-fluorophenyl)propanamide], the “Dog liver microsomes; Fmax [%]” value in data set [1] is reported as 75%. The IC50 in data set [2] (setting [6]) and in data set [2] (setting [7]) was less than 1 nM in each case. The “Human liver microsomes; Fmax [%]” value in data set [4] was 62%. Besides, in data set [5], the “Rat liver microsomes; Fmax [%]” value is recorded as 74%.
